US9132098B2, “Stable nanocomposition comprising doxorubicin, process for the preparation thereof, its use and pharmaceutical compositions containing it” (BBS Nanotechnology Ltd., priority 2013, dated 2015)

Test system: SK-OV-3 human ovary adenocarcinoma cells
Experiment: Comparative efficacy study in SK-OV-3 s.c. xenograft SCID mouse model of ovary cancer
Format: in vivo, SCID mice
Settings: 78th day after tumor inoculation, total dose DOX 23, NP 17, NP-PEG 23 mg/kg
Protocol: Tumor was induced in mice by implanting SK-OV-3 human ovary adenocarcinoma cells s.c. in upper region of back of SCID mice and allowing the tumors to develop to appreciable size over 40 days (30 mm3). The comparative efficacy study of six i.v. injection (day 43, 50, 57, 65, 71 and 78) of 5% glucose, doxorubicin (DOX) 3.8 mg/kg, NP […] and NP-PEG 3.8 mg/kg) was evaluated over 104 days. In this table there are the tumor volume of mice on 78th day after tumor inoculation (data represent mean±SEM of five mice per_group) and body weight of mice on 78th day after tumor inoculation (Data represent mean±STDEV of five mice per group). The table below discloses the comparative efficacy study in SK-OV-3 s.c. xenograft SCID mouse model of ovary cancer.

## COc1cccc2c1C(=O)c1c(O)c3c(c(O)c1C2=O)C[C@@](O)(C(=O)CO)C[C@@H]3O[C@H]1C[C@H](N)[C@H](O)[C@H](C)O1 [DOX]
Six i.v. injections (day 43-78), mean±SEM of five mice
  Tumor volume (mm^3): 294.8 ± 216 mm^3
Six i.v. injections, mean±STDEV of five mice
  Animal weight: 22.54 ± 0.77 g
